This note sets out measurements from patent US20210355107A1, “MULTI-SUBSTITUTED PYRIDONE DERIVATIVES AND MEDICAL USE THEREOF” (Beijing Yuezhikangtai Biomedicines Co., Ltd., priority 2018, published 2021).

The experiment addresses T1, tyrosine kinase Tyro3 (Homo sapiens, UniProt Q06418).
T1 construct: purchased Carna 08-109
T1 sequence (Q06418 453-890 limits assumed): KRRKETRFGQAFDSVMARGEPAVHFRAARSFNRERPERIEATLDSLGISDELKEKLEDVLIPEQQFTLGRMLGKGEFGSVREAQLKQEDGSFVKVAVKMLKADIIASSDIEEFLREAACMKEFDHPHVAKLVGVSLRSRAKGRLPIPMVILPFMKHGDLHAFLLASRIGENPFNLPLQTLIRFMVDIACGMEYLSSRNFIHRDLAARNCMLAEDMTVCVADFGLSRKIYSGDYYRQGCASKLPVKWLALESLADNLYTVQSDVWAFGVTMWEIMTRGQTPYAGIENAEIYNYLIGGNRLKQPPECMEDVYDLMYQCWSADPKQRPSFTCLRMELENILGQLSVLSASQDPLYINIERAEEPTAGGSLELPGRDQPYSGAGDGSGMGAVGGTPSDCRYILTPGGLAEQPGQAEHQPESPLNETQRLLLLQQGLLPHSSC
Description: HTRF assay, inhibitory activity against tyrosine kinase Tyro3. To be noted: ATP at Km (50 μM), two duplicate wells. The format is biochemical. The method, then: Test Example 2: Evaluation of Inhibitory Activity (IC50) of Compounds disclosed herein against Tyrosine Kinases Mer and Tyro3
In this test, HTRF method was used to test the inhibitory activity of compounds when ATP concentrations correspond to the Km of the kinases. The control substance was RXDX-106. The concentration of test compound was 3-fold diluted from an initial concentration of 10 μM, and two duplicate wells were set.
Kinase Mer (Carna, Cat. No. 08-108, Lot. No. 14CBS-0421H); Tyro3 (Carna, Cat. No. 08-109, Lot. No. 08CBS-1186H); HTRF kinase-TK kit (Cisbio, Cat. No. 62TK0PEC), the kit comprising: biotin-TK substrate lyophilized powder (Cisbio, Cat. No. 61TK0BLC, Lot. No. 07A), streptavidin-XL665 (Cisbio, Cat. No. 610SAXLG, Lot. No. 126A), TK antibody-cryptate (Cisbio, Cat. No. 610SAXLG, Lot. No. 04A), and detection buffer (including EDTA) (Cisbio, Cat. No. 62TK0PEC, Lot. No. 12A); ATP (Sigma, Cat. No. A7699-5G, CAS No. 34369-07-8, Lot. No. SLBQ6014V); DMSO (Sigma, Cat. No. D5879-1L, Lot. No. SHBH9944); HEPES (Sigma, Cat. No. V900477-500G, CAS No. 7365-45-9, Lot. No. WXBC4716V); MgCl2 (Sigma, Cat. No. 208337-1KG, Lot. No. MKBX9508V); EGTA (Sigma, Cat. No. E3889-100g, CAS 67-42-5, […], Lot. No. SLBG8546V); NP-40 (Beijing Dingguo, Cat. No. DH218, Lot. No. 36R00160); DTT (Sigma, Cat. No. D0632-25g, CAS No. 3483-12-3, Lot. No. SLBF3964V); compound plate (Labcyte, Cat. No. LP0200, Lot. No. 0006386836); assay plate (Greiner, Cat. No. 784075, Lot. No. E16123HM); control substance RXDX-106 (prepared according to the method disclosed in patent WO2013074633).
1) Preparation of a buffer: 50 mM HEPES, 10 mM MgCl2, 1 mM EGTA, 0.01% NP-40, 2 mM DTT.
2) Preparation of control substance and test samples: RXDX-106 and the compounds disclosed herein were each dissolved in DMSO to 10 mM and then diluted to 1 mM or an appropriate concentration with DMSO, and then serial double dilution was performed using BRAVO (Agilent). 100 nL of each was transferred from a compound plate (Labcyte-LP0200) to an assay plate (Greiner-784075) using ECHO 555 (Labcyte). The final concentration of DMSO was 1%.
3) Mer and Tyro3 were each diluted to 0.5 nM and 1.2 nM with the detection buffer (Cisbio, Cat. No. 62TK0PEC, Lot. No. 12A). 5 μL of each was added to a 384-well plate and incubated with the compounds disclosed herein for 30 min at 22-25° C. Final concentrations of Mer and Tyro3 were 0.25 nM and 0.6 nM, respectively.
4) Biotin-TK substrate and ATP were each diluted to a concentration twice the final concentration with 1× kinase buffer made up of HEPES, NaN3, BSA and orthovanadate. 5 μL of the mixture of substrate and ATP was added to the 384-well plate to initiate the reaction, which lasts for 1 h at 22-25° C.
5) Streptavidin-XL665 and TK antibody-cryptate were diluted to 250 nM and 0.5 nM, respectively, with the detection buffer. […] of each of the two solutions was added to the 384-well plate to initiate the reaction, which lasts for 1 h at 22-25° C. The final concentrations of streptavidin-XL665 and TK antibody-cryptate were 125 nM and 0.25 nM, respectively.
6) The fluorescence intensities at 665 nm and 615 nm were read with an Envision Reader (PerkinElmer) .
7) IC50 values of the compounds were fitted with XL-fit software.
With `CC(C)n1cc(C(=O)Nc2ccc(-c3cc(-c4cnn(C5CCNCC5)c4)cnc3N)c(F)c2)c(=O)c(-c2ccc(F)cc2)c1C#N` [Example 2, N-(4-(2-amino-5-(1-(piperidin-4-yl)-1H-pyrazol-4-yl)pyridin-3-yl)-3-fluorophenyl)-6-cyano-5-(4-fluorophenyl)-1-isopropyl-4-oxo-1,4-dihydropyridine-3-carboxamide], the IC50 came to 1.18 nM.

In turn, `CCn1cc(-c2cnc(N)c(-c3ccc(NC(=O)c4cn(C(C)C)c(C#N)c(-c5ccc(F)cc5)c4=O)cc3F)c2)cn1` [Example 3, N-(4-(2-amino-5-(1-ethyl-1H-pyrazol-4-yl)pyridin-3-yl)-3-fluoro-phenyl)-6-cyano-5-(4-fluorophenyl)-1-isopropyl-4-oxo-1,4-dihydropyridine-3-carboxamide] returned an IC50 of 2.27 nM.

Take `CC(C)n1cc(C(=O)Nc2ccc(-c3cc(-c4cnn(C)c4)cnc3N)c(F)c2)c(=O)c(-c2ccc(F)cc2)c1C#N` [Example 4, N-(4-(2-amino-5-(1-methyl-1H-pyrazol-4-yl)pyridin-3-yl)-3-fluorophenyl)-6-cyano-5-(4-fluorophenyl)-1-isopropyl-4-oxo-1,4-dihydropyridine-3-carboxamide]: it took 2.67 nM to reach half-maximal inhibition (IC50).

Consider `CC(C)n1cc(C(=O)Nc2cc(F)c(-c3cc(-c4cnn(C)c4)cnc3N)cc2F)c(=O)c(-c2ccc(F)cc2)c1C#N` [Example 6, N-(4-(2-amino-5-(1-methyl-1H-pyrazol-4-yl)pyridin-3-yl)-2,5-difluorophenyl)-6-cyano-5-(4-fluorophenyl)-1-isopropyl-4-oxo-1,4-dihydropyridine-3-carboxamide], for which the half-maximal inhibitory concentration (IC50) is 1.8 nM.

Consider `CC(C)n1cc(C(=O)Nc2ccc(-c3cc(-c4cnn(C5CCN(C)CC5)c4)cnc3N)c(F)c2)c(=O)c(-c2ccc(F)cc2)c1C#N` [Example 7, N-(4-(2-amino-5-(1-(1-methylpiperidin-4-yl)-1H-pyrazol-4-yl)-pyridin-3-yl)-3-fluorophenyl)-6-cyano-5-(4-fluorophenyl)-1-isopropyl-4-oxo-1,4-dihydro-pyridine-3-carboxamide], for which the IC50 was determined as 1.77 nM.

With `CCn1cc(-c2cnc(N)c(-c3ccc(NC(=O)c4cn(C5CC5)c(C#N)c(-c5ccc(F)cc5)c4=O)cc3F)c2)cn1` [Example 10, N-(4-(2-amino-5-(1-ethyl-1H-pyrazol-4-yl)pyridin-3-yl)-3-fluorophenyl)-6-cyano-5-(4-fluorophenyl)-1-cyclopropyl-4-oxo-1,4-dihydropyridine-3-carboxamide], the IC50 worked out at 30.2 nM.

For `COc1cc2nccc(Oc3ccc(NC(=O)c4cn(C(C)C)c(C#N)c(-c5ccc(F)cc5)c4=O)cc3F)c2cc1OC` [Example 24, 6-cyano-N-(4-((6,7-dimethoxyquinolin-4-yl)oxy)-3-fluoro-phenyl)-5-(4-fluorophenyl)-1-isopropyl-4-oxo-1,4-dihydropyridine-3-carboxamide], the IC50 was 15.5 nM.

Molecule `CCn1cc(-c2cnc(N)c(-c3cc(F)c(NC(=O)c4cn(C(C)C)c(C#N)c(-c5ccc(F)cc5)c4=O)cc3F)c2)cn1` [Example 33, N-(4-(2-amino-5-(1-ethyl-1H-pyrazol-4-yl)pyridin-3-yl)-2,5-difluorophenyl)-6-cyano-5-(4-fluorophenyl)-1-isopropyl-4-oxo-1,4-dihydropyridine-3-carboxamide] had an IC50 of 0.5 nM.

As to `[2H]C([2H])([2H])n1cc(-c2cnc(N)c(-c3cc(F)c(NC(=O)c4cn(C(C)C)c(C#N)c(-c5ccc(F)cc5)c4=O)cc3F)c2)cn1` [Example 34, N-(4-(2-amino-5-(1-methyl-d3-1H-pyrazol-4-yl)pyridin-3-yl)-2,5-difluorophenyl)-6-cyano-5-(4-fluorophenyl)-1-isopropyl-4-oxo-1,4-dihydropyridine-3-carboxamide], inhibition was half-maximal at 1.16 nM (IC50).
